Read-outs that look alike come from different tables or passages of the source.
Tests used:
[1] = target: T1, B-Raf kinase (SEQ ID NO: 1) (Homo sapiens, UniProt P15056); experiment: Biochemical assay for B-Raf (coupled pyruvate kinase/lactate dehydrogenase)
T1 construct: GST (N); purchased Sigma

[2] = target: T2, C-Raf kinase (SEQ ID NO: 2) (Homo sapiens, UniProt P04049, Y340D/Y341D); experiment: Biochemical assay for C-Raf (coupled pyruvate kinase/lactate dehydrogenase)
T2 construct: C-Raf residues 306-end; Y340D, Y341D with N-; GST (N); purchased Sigma
T2 sequence (P04049 307-648 Y340D/Y341D): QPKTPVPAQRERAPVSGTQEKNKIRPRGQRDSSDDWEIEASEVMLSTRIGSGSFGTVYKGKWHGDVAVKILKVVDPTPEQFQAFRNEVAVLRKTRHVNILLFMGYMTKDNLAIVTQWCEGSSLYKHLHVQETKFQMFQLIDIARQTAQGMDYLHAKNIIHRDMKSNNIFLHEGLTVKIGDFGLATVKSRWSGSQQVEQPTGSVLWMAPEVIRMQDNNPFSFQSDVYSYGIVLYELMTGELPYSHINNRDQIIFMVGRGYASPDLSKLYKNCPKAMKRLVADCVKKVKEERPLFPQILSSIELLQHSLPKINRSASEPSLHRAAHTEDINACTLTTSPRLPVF

[3] = test system: MiaPaca-2 cells; experiment: MiaPaca-2 cell proliferation assay; type: cell-based; details: Homo sapiens, MIA PaCa-2
[4] = test system: HCT-116 cells; experiment: HCT-116 cell proliferation assay; type: cell-based; details: Homo sapiens
[5] = test system: HPAF-II cells; experiment: HPAF-II cell proliferation assay; type: cell-based; details: Homo sapiens
[6] = test system: Pa16c cells; experiment: Pa16c cell proliferation assay; type: cell-based; details: 67 to 72 h incubation, resazurin; read-out: Pa16c (inhibition of cell proliferation, IC50)
[7] = test system: tubulin polymerization in HCT-116 cells; experiment: Cellular tubulin polymerization assay (HCT-116 cells); type: cell-based; details: HCT-116 cells, read-out: Tubulin Cellular
Protocol: HCT-116 cells (catalog #CCL-247) are obtained from the American Type Culture Collect (ATCC, Manassas, VA). Briefly, cells are grown in McCoy's 5A supplemented with 10% characterized fetal bovine serum (Invitrogen, Carlsbad, CA) and 1% Penicillin/Streptomycin/L-Glutamine at 37° C., 5% CO2, and 95% humidity. Cells are expanded until reaching 70-95% confluency at which point they are sub-cultured or harvested for assay use. 450000 cells are added per well in 1500 μL complete growth medium in a tissue culture treated, 12-well plate. Plates are incubated for 18 to 24 h at 37° C., 5% CO2, and 95% humidity. At the end of the incubation, 2000 μL of base culture media is added to each well, followed by a serial dilution of compound. Plates are incubated for an additional 1 h at 37° C., 5% CO2, and 95% humidity. Lysates are generated by the addition of 100 μL Lysis and Microtubule Stabilization Buffer 1 (LMSO1, Cytoskeleton Inc, Denver, CO) supplemented with GTP (BST06, Cytoskeleton Inc), ATP (BSA04, Cytoskeleton Inc), and Protease Inhibitor Cocktail Stock (PIC02, Cytoskeleton Inc). Cells are scraped off wells using a rubber cell scraper and collected in a clean 96-well plate. Lysates are centrifuged at 1000× g, 37° C. for 10 min and supernatant fraction is placed into an additional 96-well plate. The remaining pellet fraction is reconstituted in 100 μL LMS01 buffer and sonicated for 10 min. Pellet and Supernatant fractions are probed for α-tubulin via western blot analysis on the Jess System or equivalent (Bio-techne, Minneapolis, MN). Data is analyzed using Prism software (Graphpad, San Diego, CA) to calculate IC50 values.

[8] = 1 mM ATP, read-out: BRAF (inhibition of biochemical activity, IC50)
[9] = 1 mM ATP, read-out: CRAF (inhibition of biochemical activity, IC50)
[10] = 67-72 h incubation, resazurin, read-out: MiaPaca-2 (inhibition of cell proliferation, IC50)
[11] = Table 3, mutant KRAS pancreatic cancer cell line, anti-proliferative, read-out: MiaPaca-2
[12] = HCT-116, 67 to 72 h incubation, resazurin, read-out: HCT-116 (inhibition of cell proliferation, IC50)
[13] = Table 3, mutant KRAS colorectal cancer cell line, anti-proliferative, read-out: HCT-116
[14] = HPAF-II, 115 to 120 h incubation, resazurin, read-out: HPAF-II (inhibition of cell proliferation, IC50)
[15] = Table 3, mutant KRAS pancreatic cancer cell line, anti-proliferative, read-out: HPAF-II
[16] = Table 4, mutant KRAS pancreatic cancer cell line, anti-proliferative, read-out: MiaPaca-2
[17] = Table 4, mutant KRAS colorectal cancer cell line, anti-proliferative, read-out: HCT-116
[18] = Table 4, mutant KRAS pancreatic cancer cell line, anti-proliferative, read-out: HPAF-II

T1 sequence (P15056 416-766): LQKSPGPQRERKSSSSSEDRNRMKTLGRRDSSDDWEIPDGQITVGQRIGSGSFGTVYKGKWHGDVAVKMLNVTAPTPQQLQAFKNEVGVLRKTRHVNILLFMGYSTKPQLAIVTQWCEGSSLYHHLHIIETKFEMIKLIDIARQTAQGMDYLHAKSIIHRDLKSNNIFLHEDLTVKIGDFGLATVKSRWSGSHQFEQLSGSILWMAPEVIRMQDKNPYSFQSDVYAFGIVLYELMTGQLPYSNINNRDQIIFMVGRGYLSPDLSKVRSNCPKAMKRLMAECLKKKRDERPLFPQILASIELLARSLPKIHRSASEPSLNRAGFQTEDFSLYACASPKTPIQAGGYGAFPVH

Row | Compound | IC50 [1, 8] | IC50 ([1]; Table 3, read-out: BRAF) | IC50 [2, 9] | IC50 ([2]; Table 3, read-out: CRAF) | IC50 [3, 10] | IC50 [3, 11] | IC50 [4, 12] | IC50 [4, 13] | IC50 [5, 14] | IC50 [5, 15] | IC50 [6] | IC50 ([7]; Table 3) | IC50 ([1]; Table 4, read-out: BRAF) | IC50 ([2]; Table 4, read-out: CRAF) | IC50 [3, 16] | IC50 [4, 17] | IC50 [5, 18] | IC50 ([7]; Table 4)
1 | Cc1ccc(NC(=O)c2cc(C(F)(F)F)cnn2)cc1-c1ccnc(N2CC3CCC(C2)O3)c1 [Example 83] | < 100 nM | < 100 nM | < 100 nM | < 100 nM | < 100 nM | < 100 nM | < 100 nM | < 100 nM | < 100 nM | < 100 nM | < 100 nM | < 100 nM | – | – | – | – | – | –
2 | Cc1ccc(NC(=O)c2cc(C(C)C)cnn2)cc1-c1cc(N[C@H](C)CO)nc(N2CCOCC2)c1 [Example 14] | < 100 nM | < 100 nM | < 100 nM | < 100 nM | 100 to 500 nM | 100 to 500 nM | 100 to 500 nM | 100 to 500 nM | 100 to 500 nM | 100 to 500 nM | 1000 to 10000 nM | < 100 nM | – | – | – | – | – | –
3 | Cc1ccc2c(Nc3cccc(Cl)c3F)nccc2c1NC(=O)c1csc2c(N)ncnc12 [Belvarafenib, reference compound] | – | – | – | – | – | – | – | – | – | – | – | – | < 100 nM | < 100 nM | 1000 to 10000 nM | 500 to 1000 nM | 1000 to 10000 nM | 1000 to 10000 nM
4 | Cc1ccc(NC(=O)c2cc(C(C)(C)F)cnn2)cc1-c1cc(OCCO)nc(N2CCOCC2)c1 [Example 34] | < 100 nM | < 100 nM | < 100 nM | < 100 nM | < 100 nM | < 100 nM | < 100 nM | < 100 nM | < 100 nM | < 100 nM | < 100 nM | 100 to 500 nM | – | – | – | – | – | –
5 | C[C@@H](NC(=O)c1ncnc(N)c1Cl)c1ncc(C(=O)Nc2cc(C(F)(F)F)c(Cl)cn2)s1 [Tovorafenib, reference compound] | – | – | – | – | – | – | – | – | – | – | – | – | – | – | 1000 to 10000 nM | 1000 to 10000 nM | 1000 to 10000 nM | 1000 to 10000 nM
6 | Cc1ccc(NC(=O)c2ccnc(C(F)(F)F)c2)cc1-c1cc(OCCO)nc(N2CCOCC2)c1 [Naporafenib, reference compound] | – | – | – | – | – | – | – | – | – | – | – | – | < 100 nM | < 100 nM | 1000 to 10000 nM | 1000 to 10000 nM | 1000 to 10000 nM | 1000 to 10000 nM
7 | Cc1ccc(NC(=O)N2CC[C@@H](CC(F)(F)F)C2)cc1-c1cc(N[C@H](C)CO)nc(N2CCOCC2)c1 [Exarafenib, reference compound] | – | – | – | – | – | – | – | – | – | – | – | – | – | – | 1000 to 10000 nM | 500 to 1000 nM | 1000 to 10000 nM | 1000 to 10000 nM
8 | Cc1cc(-c2cc(NC(=O)c3cc(C(F)(F)F)cnn3)ccc2C)cc(N2CCOCC2)n1 [Example 4] | < 100 nM | – | < 100 nM | – | 100 to 500 nM | – | 100 to 500 nM | – | < 100 nM | – | < 100 nM | – | – | – | – | – | – | –
9 | Cc1ccc(NC(=O)c2cc(C3CCC3)cnn2)cc1-c1cc(OCCO)nc(N2CCOCC2)c1 [Example 50] | < 100 nM | – | < 100 nM | – | < 100 nM | – | < 100 nM | – | < 100 nM | – | < 100 nM | – | – | – | – | – | – | –
10 | CNc1cc(-c2cc(NC(=O)c3cc(C(F)(F)F)cnn3)ccc2C)cc(N2C[C@H]3C[C@@H]2CO3)n1 [Example 92] | 100 to 500 nM | – | 100 to 500 nM | – | < 100 nM | – | < 100 nM | – | < 100 nM | – | < 100 nM | – | – | – | – | – | – | –
11 | Cc1ccc(NC(=O)c2cc(C3CC3)cnn2)cc1-c1nc(N[C@H](C)CO)cc(N2CCOCC2)n1 [Example 45] | 1000 to 10000 nM | – | 500 to 1000 nM | – | 500 to 1000 nM | – | 500 to 1000 nM | – | 500 to 1000 nM | – | 1000 to 10000 nM | – | – | – | – | – | – | –
12 | Cc1ccc(NC(=O)c2cc(C3CC3)cnn2)cc1-c1ccnc(N2CCOCC2)c1 [Example 2, 5-cyclopropyl-N-(4-methyl-3-(2-morpholinopyridin-4-yl)phenyl)pyridazine-3-carboxamide] | 100 to 500 nM | – | < 100 nM | – | 100 to 500 nM | – | 100 to 500 nM | – | 100 to 500 nM | – | 1000 to 10000 nM | – | – | – | – | – | – | –
13 | Cc1ccc(NC(=O)c2cc(C(C)(F)F)cnn2)cc1-c1cc(N[C@H](C)CO)nc(N2CCOCC2)c1 [Example 66] | < 100 nM | – | < 100 nM | – | < 100 nM | – | < 100 nM | – | < 100 nM | – | < 100 nM | – | – | – | – | – | – | –
14 | Cc1ccc(NC(=O)c2cncc(Cl)c2)cc1-c1cc(N[C@H](C)CO)nc(N2CCOCC2)c1 [Example 16] | < 100 nM | – | < 100 nM | – | 100 to 500 nM | – | 500 to 1000 nM | – | 500 to 1000 nM | – | 1000 to 10000 nM | – | – | – | – | – | – | –
15 | CNc1cc(-c2cc(NC(=O)c3cc(C(F)(F)F)cnn3)ccc2C)cc(N2CCOCC2)n1 [Example 61] | < 100 nM | – | < 100 nM | – | < 100 nM | – | < 100 nM | – | < 100 nM | – | < 100 nM | – | – | – | – | – | – | –
16 | Cc1ccc(NC(=O)c2cc(C(F)(F)F)cnn2)cc1-c1cnnc(N2CCOCC2)c1 [Example 21, N-(4-methyl-3-(6-morpholinopyridazin-4-yl)phenyl)-5-(trifluoromethyl)pyridazine-3-carboxamide] | 500 to 1000 nM | – | 500 to 1000 nM | – | 500 to 1000 nM | – | 500 to 1000 nM | – | 500 to 1000 nM | – | 1000 to 10000 nM | – | – | – | – | – | – | –
17 | CNc1cc(-c2cc(NC(=O)c3cc(C4CC4)cnn3)ccc2C)cc(N2CCOCC2)n1 [Example 60] | 100 to 500 nM | – | < 100 nM | – | < 100 nM | – | < 100 nM | – | < 100 nM | – | < 100 nM | – | – | – | – | – | – | –
18 | Cc1ccc(NC(=O)c2cc(C(F)(F)F)cnn2)cc1-c1cc(N[C@H](C)CO)nc(N2C[C@H]3C[C@@H]2CO3)c1 [Example 93] | 100 to 500 nM | – | 100 to 500 nM | – | < 100 nM | – | < 100 nM | – | < 100 nM | – | < 100 nM | – | – | – | – | – | – | –
19 | Cc1ccc(NC(=O)c2cc(C(F)(F)F)cnn2)cc1-c1ccnc(N2CCOC(C(F)(F)F)C2)c1 (centres unmarked) [Example 8] | 1000 to 10000 nM | – | 1000 to 10000 nM | – | 100 to 500 nM | – | 100 to 500 nM | – | 500 to 1000 nM | – | 500 to 1000 nM | – | – | – | – | – | – | –

From patent publication US20250206729A1, “DUAL RAF AND TUBULIN INHIBITORS AND METHODS OF USE THEREOF” (Deciphera Pharmaceuticals, LLC, priority 2023, published 2025)
